In patent US10435414B2, “Tricyclic PI3K inhibitor compounds and methods of use” (Genentech, Inc., priority 2015, dated 2019) one finds Ki data, which are given here for four compounds.

PI3Kα (alpha), sequence (P42336 whole entry): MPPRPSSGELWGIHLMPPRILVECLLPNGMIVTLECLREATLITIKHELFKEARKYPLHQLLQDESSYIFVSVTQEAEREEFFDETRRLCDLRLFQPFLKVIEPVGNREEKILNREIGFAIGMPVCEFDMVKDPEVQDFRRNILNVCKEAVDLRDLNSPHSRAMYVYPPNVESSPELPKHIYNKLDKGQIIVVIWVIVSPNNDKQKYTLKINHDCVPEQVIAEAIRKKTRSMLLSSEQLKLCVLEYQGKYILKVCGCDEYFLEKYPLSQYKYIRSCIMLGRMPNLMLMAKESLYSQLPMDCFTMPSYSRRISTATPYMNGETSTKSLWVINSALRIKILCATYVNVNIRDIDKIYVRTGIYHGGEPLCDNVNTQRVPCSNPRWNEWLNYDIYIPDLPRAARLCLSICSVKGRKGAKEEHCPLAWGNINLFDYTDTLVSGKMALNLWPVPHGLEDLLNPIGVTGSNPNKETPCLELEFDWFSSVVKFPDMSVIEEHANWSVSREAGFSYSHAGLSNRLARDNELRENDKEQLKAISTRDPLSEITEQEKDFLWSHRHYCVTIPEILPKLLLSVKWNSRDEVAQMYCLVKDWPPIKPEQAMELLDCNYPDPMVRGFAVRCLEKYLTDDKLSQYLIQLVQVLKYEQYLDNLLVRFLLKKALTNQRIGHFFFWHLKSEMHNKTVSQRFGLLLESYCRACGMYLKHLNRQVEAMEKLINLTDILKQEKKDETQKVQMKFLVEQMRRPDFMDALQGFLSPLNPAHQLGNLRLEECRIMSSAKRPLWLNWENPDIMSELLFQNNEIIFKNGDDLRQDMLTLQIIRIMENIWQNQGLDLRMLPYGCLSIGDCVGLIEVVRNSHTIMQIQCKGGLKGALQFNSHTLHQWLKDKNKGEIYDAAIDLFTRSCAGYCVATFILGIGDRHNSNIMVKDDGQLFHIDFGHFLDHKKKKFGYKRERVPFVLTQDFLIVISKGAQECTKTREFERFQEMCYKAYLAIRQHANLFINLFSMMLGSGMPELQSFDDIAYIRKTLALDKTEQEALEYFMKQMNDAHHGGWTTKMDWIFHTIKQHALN
PI3Kα (alpha), sequence (P27986 whole entry partner): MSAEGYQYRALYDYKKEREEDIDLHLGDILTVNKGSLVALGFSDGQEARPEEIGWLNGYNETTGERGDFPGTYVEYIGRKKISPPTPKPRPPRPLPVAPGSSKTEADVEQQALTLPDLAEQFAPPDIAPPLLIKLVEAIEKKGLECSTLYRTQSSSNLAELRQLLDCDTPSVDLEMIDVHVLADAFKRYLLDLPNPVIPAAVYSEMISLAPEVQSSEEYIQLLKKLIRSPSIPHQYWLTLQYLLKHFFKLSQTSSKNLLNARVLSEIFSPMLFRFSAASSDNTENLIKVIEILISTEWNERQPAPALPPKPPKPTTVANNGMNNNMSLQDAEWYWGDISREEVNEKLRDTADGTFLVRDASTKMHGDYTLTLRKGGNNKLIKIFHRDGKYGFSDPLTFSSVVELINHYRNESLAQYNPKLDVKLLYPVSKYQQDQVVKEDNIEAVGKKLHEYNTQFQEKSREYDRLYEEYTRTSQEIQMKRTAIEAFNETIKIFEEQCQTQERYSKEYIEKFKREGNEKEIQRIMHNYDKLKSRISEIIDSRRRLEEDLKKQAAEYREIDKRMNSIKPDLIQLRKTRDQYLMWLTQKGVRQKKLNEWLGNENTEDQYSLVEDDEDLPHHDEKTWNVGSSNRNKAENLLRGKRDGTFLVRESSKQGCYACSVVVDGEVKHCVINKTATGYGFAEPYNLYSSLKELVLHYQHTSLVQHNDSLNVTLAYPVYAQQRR

The target in this assay is PI3Kα (alpha) (Homo sapiens (Human), UniProt P42336). The assay is described as follows: p110α (alpha) PI3K binding assay (ADP-Glo lipid kinase reaction, Ki by Morrison equation). It counts as biochemical. The settings on record: PI3K alpha 0.2 nM, ATP 40 μM, PIP2:3PS 50 μM, 120 min, room temperature; read-out: PI3Kα-(alpha) ATP (Ki) micromolar. As for the experimental part: PI3K Binding assays are intended for determining the biochemical potency of small molecule PI3K inhibitors. The PI3K lipid kinase reaction is performed in the presence of PIP2:3PS lipid substrate (Promega #V1792) and ATP. Following the termination if the kinase reaction, turnover of ATP to ADP by the phosphorylation of the lipid substrate is detected using the Promega ADP-Glo™ (Promega #V1792) assay. Reactions are carried out using the following conditions:
After 120 minutes of reaction time, the kinase reaction is terminated. Any ATP remaining after the reaction is depleted, leaving only ADP. Then the Kinase Detection Reagent is added to convert ADP to ATP, which is used in a coupled luciferin/luciferase reaction. The luminescent output is measured and is correlated with kinase activity.
All reactions are carried out at room temperature. […] The reaction is started by the addition of 2 μl ATP/MgCl2. The kinase reaction buffer contains 50 mM HEPES, 50 mM NaCl, 3 mM MgCl2, 0.01% BSA, 1% DMSO, and enzyme and substrate concentrations as indicated in the above table. The reaction is stopped by the addition of 10 μL ADP-Glo reagent. Plates are read in a Perkin Elmer Envision system using luminescence mode. 10 point dose response curves are generated for each test compound. Ki values for each compound are determined using the Morrison Equation.
On the technique in general: ADP-Glo first removes unused ATP, then detects ADP through luciferase.
Regarding `NC(=O)[C@H](Oc1cc2c3c(c1)nc(-c1ccc4oc(N)nc4c1)n3CCCCO2)C1CC1` (single isomer, unassigned) [Example 283], the Ki (usually a dissociation constant, usually derived from enzyme kinetics or from competition with a known ligand) stood at 0.104 nM. To `NC(=O)[C@@H](Oc1cc2c3c(c1)nc(-c1cc(F)c4oc(N)nc4c1)n3CCCCO2)C1CC1` (single isomer, unassigned) [Example 289] belongs < 0.02 nM.

Regarding `NC(=O)[C@H](Oc1cc2c3c(c1)nc(-c1cc(F)c4oc(N)nc4c1)n3CCCCO2)C1CC1` (single isomer, unassigned) [Example 288], the Ki was 0.1 nM.

Regarding `NC(=O)[C@@H](Oc1cc2c3c(c1)nc(-c1ccc4oc(N)nc4c1)n3CCCCO2)C1CC1` (single isomer, unassigned) [Example 284], the Ki was < 0.02 nM.
